Assay results taken from PubChem BioAssay (NCI).
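Assay format: 96-well plates, 48-hour exposure. TGI denotes the concentration required for complete inhibition of growth.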

Key:
Test in all cases: DTP human tumour cell line panel, 48 h
M14 melanoma = tested on: M14 melanoma
RPMI-8226 leukemia = tested on: RPMI-8226 leukemia
RXF 393 renal = tested on: RXF 393 renal
DLD-1 colon = tested on: DLD-1 colon
SF-539 CNS = tested on: SF-539 CNS
MALME-3M melanoma = tested on: MALME-3M melanoma
OVCAR-5 ovarian = tested on: OVCAR-5 ovarian
EKVX NSCLC = tested on: EKVX NSCLC
A549 NSCLC = tested on: A549 NSCLC
HOP-62 NSCLC = tested on: HOP-62 NSCLC
DMS 273 small cell lung = tested on: DMS 273 small cell lung
SF-268 CNS = tested on: SF-268 CNS
UO-31 renal = tested on: UO-31 renal
UACC-257 melanoma = tested on: UACC-257 melanoma
NCI-H23 lung = tested on: NCI-H23 lung
CCRF-CEM leukemia = tested on: CCRF-CEM leukemia
SNB-19 CNS = tested on: SNB-19 CNS
SF-295 CNS = tested on: SF-295 CNS
KM12 colon = tested on: KM12 colon
LXFL 529 NSCLC = tested on: LXFL 529 NSCLC
OVCAR-4 ovarian = tested on: OVCAR-4 ovarian
HL-60(TB) leukemia = tested on: HL-60(TB) leukemia
LOX IMVI melanoma = tested on: LOX IMVI melanoma
SK-MEL-5 melanoma = tested on: SK-MEL-5 melanoma
IGROV1 ovarian = tested on: IGROV1 ovarian
MOLT-4 leukemia = tested on: MOLT-4 leukemia
SW-620 colon = tested on: SW-620 colon
DMS 114 small cell lung = tested on: DMS 114 small cell lung
K-562 leukemia = tested on: K-562 leukemia
SNB-75 CNS = tested on: SNB-75 CNS
SK-OV-3 ovarian = tested on: SK-OV-3 ovarian
OVCAR-8 ovarian = tested on: OVCAR-8 ovarian
OVCAR-3 ovarian = tested on: OVCAR-3 ovarian
HCT-116 colon = tested on: HCT-116 colon
SK-MEL-2 melanoma = tested on: SK-MEL-2 melanoma
HT29 colon = tested on: HT29 colon
786-0 renal = tested on: 786-0 renal
SN12C renal = tested on: SN12C renal
COLO 205 colon = tested on: COLO 205 colon
HCT-15 colon = tested on: HCT-15 colon
U251 CNS = tested on: U251 CNS
SK-MEL-28 melanoma = tested on: SK-MEL-28 melanoma
SNB-78 CNS = tested on: SNB-78 CNS
NCI-H460 lung = tested on: NCI-H460 lung
UACC-62 melanoma = tested on: UACC-62 melanoma
NCI-H522 lung = tested on: NCI-H522 lung
A498 renal = tested on: A498 renal
ACHN renal = tested on: ACHN renal
HOP-18 NSCLC = tested on: HOP-18 NSCLC
SR leukemia = tested on: SR leukemia
TK-10 renal = tested on: TK-10 renal
M19-MEL melanoma = tested on: M19-MEL melanoma
HOP-92 NSCLC = tested on: HOP-92 NSCLC
HCC-2998 colon = tested on: HCC-2998 colon
XF 498 CNS = tested on: XF 498 CNS
CAKI-1 renal = tested on: CAKI-1 renal
NCI-H226 lung = tested on: NCI-H226 lung
KM20L2 colon = tested on: KM20L2 colon
RXF-631 renal = tested on: RXF-631 renal

Measured: TGI

CN(C)CCC(/C=C/c1ccccc1)=N\Nc1c(F)c(F)c(F)c(F)c1F
37.8 µM: HL-60(TB) leukemia
28.8 µM: SK-MEL-5 melanoma
not listed: HOP-92 NSCLC | HCC-2998 colon | XF 498 CNS | CAKI-1 renal | NCI-H226 lung | KM20L2 colon | RXF-631 renal
> 100 µM: all other assays above

COC(=O)C1C(=O)NC2(C)CC1c1ccccc1O2 (stereo not given)
> 10 µM: M14 melanoma | HOP-62 NSCLC | OVCAR-3 ovarian
not listed: EKVX NSCLC | COLO 205 colon | HOP-18 NSCLC | KM20L2 colon | RXF-631 renal
> 100 µM: all other assays above

COc1ccc(C2C(C(=O)O)=C(COC(C)=O)Oc3cc4c(cc32)OCO4)c(OC)c1 (stereo not given)
not listed: OVCAR-5 ovarian | SF-268 CNS | KM12 colon | LXFL 529 NSCLC | NCI-H522 lung | A498 renal | SR leukemia | HCC-2998 colon | NCI-H226 lung
> 100 µM: all other assays above

CC(C)C(Nc1c2ccccc2[n+](C)c2ccccc12)C(=O)O (stereo not given)
not listed: CCRF-CEM leukemia | LOX IMVI melanoma | SK-MEL-28 melanoma | HOP-92 NSCLC | RXF-631 renal
> 100 µM: all other assays above
